These results are taken from ChEMBL document CHEMBL1201862, “PubChem BioAssay data set” (2004).

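How tested: cells in 96-well plates exposed to compound for 48 hours at five concentrations. The concentration for 50% growth inhibition is given as GI50.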 The source made the active and inactive calls. Cut-off read from the data, not from the text of the source: active = GI50 up to about 1.1 µM and inactive = higher. Some results are limits rather than exact numbers.

Some test systems named below: A549; CCRF-CEM; COLO 205; EKVX; HCT-116; HCT-15; IGROV-1; M14; MDA-MB-435; MDA-N; NCI-H226; NCI-H23; NCI/ADR-RES; OVCAR-8; SK-MEL-2; SK-MEL-5; SN12C; SNB-75; TK-10; UACC-257.
Experiment in all cases: NCI-60 cell line screen, 48 h

For the compound `C[C@@H]1CC[C@@]2(NC1)O[C@H]1C[C@H]3[C@@H]4CC[C@H]5C[C@@H](O)CC[C@]5(C)[C@H]4CC[C@]3(C)[C@H]1[C@@H]2C`, the GI50 is > 100 µM (inactive) with A549; > 100 µM (inactive) in the experiment on CCRF-CEM; 57.1 µM (inactive) with COLO 205; > 100 µM (inactive) in the experiment with EKVX; 45.5 µM (inactive) in the experiment on HCT-116; 36.9 µM with HCT-15. Also, the GI50 is 90.2 µM (inactive) in the experiment with IGROV-1; 65.2 µM (inactive) in the experiment on M14; > 100 µM (inactive) in the experiment with MDA-MB-435; 36 µM (inactive) in the experiment on MDA-N; > 100 µM (inactive) with NCI-H226; 77.3 µM (inactive) in the experiment on NCI-H23. For the same compound, the GI50 in the experiment with NCI/ADR-RES was 30.8 µM (inactive); in the experiment on OVCAR-8, 21.5 µM (inactive); with SK-MEL-2, > 100 µM (inactive); in the experiment with SK-MEL-5, 42.1 µM (inactive); in the experiment with SN12C it was 55.5 µM (inactive); in the experiment on SNB-75, 61.9 µM (inactive). The GI50 with TK-10 is 35.3 µM (inactive); in the experiment on UACC-257, > 100 µM (inactive).

`COc1ccc(/C=C(\C(=C/c2ccc(OC)cc2)[N+](=O)[O-])[N+](=O)[O-])cc1`: the GI50 with A549 is 22.7 µM (inactive); in the experiment on CCRF-CEM, 0.429 µM (active); with COLO 205, 3.68 µM (inactive); in the experiment with EKVX, 8.71 µM (inactive); in the experiment on HCT-116, 10.2 µM (inactive); in the experiment on HCT-15 it was 2.55 µM. In addition, the GI50 with IGROV-1 was 4.55 µM (inactive); with M14 it was 4.11 µM (inactive); with MDA-MB-435 it was 3.4 µM (inactive); in the experiment with MDA-N it was 3.14 µM (inactive); in the experiment on NCI-H226, 3.97 µM (inactive); with NCI-H23 it was 4.46 µM (inactive). Moreover, the GI50 in the experiment with NCI/ADR-RES is 1.93 µM (inactive); in the experiment with OVCAR-8, 2.03 µM (inactive); in the experiment on SK-MEL-2 it was 11.6 µM (inactive); in the experiment with SK-MEL-5 it was 4.07 µM (inactive); in the experiment with SN12C it was 2.88 µM (inactive); in the experiment on SNB-75 it was 26.1 µM (inactive). The GI50 in the experiment on TK-10 was 5.71 µM (inactive); in the experiment with UACC-257 it was 5.22 µM (inactive).

In the case of `Nn1c(CCCCCCCCc2nnc(COc3c(O)ccc4ccccc34)n2N)nnc1COc1c(O)ccc2ccccc12`, the GI50 with A549 is > 100 µM (inactive); with COLO 205, > 100 µM (inactive); with EKVX, > 100 µM (inactive); in the experiment on HCT-116, 49.5 µM (inactive); with HCT-15, greater than 100 µM; with IGROV-1 it was > 100 µM (inactive). Moreover, the GI50 in the experiment with M14, with MDA-MB-435, in the experiment with MDA-N, in the experiment with NCI-H226, with NCI-H23 and in the experiment with NCI/ADR-RES was > 100 µM (inactive) each time. For the same compound, the GI50 in the experiment on SK-MEL-2, in the experiment with SK-MEL-5, in the experiment on SN12C, in the experiment on SNB-75, in the experiment on TK-10 and in the experiment on UACC-257 was > 100 µM (inactive) throughout.

Take `Clc1ccc(Cc2nc3ccccc3nc2-c2cccc(Cl)c2)cc1`: the GI50 is 15.6 µM (inactive) with A549; 0.0311 µM (active) in the experiment with CCRF-CEM; 2.8 µM (inactive) in the experiment on COLO 205; 17.5 µM (inactive) with EKVX; 1.72 µM (inactive) with HCT-116; 1.66 µM in the experiment on HCT-15. Moreover, the GI50 is 1.95 µM (inactive) with IGROV-1; 2.43 µM (inactive) in the experiment on M14; 1.95 µM (inactive) with MDA-MB-435; 2.28 µM (inactive) with MDA-N; 20.3 µM (inactive) in the experiment with NCI-H226; 13.5 µM (inactive) in the experiment on NCI-H23. Besides, the GI50 in the experiment on NCI/ADR-RES was 3.1 µM (inactive); in the experiment on OVCAR-8, 3.56 µM (inactive); in the experiment on SK-MEL-2, 3.24 µM (inactive); with SK-MEL-5, 4.91 µM (inactive); with SN12C it was 2.94 µM (inactive); in the experiment with TK-10, 12.3 µM (inactive). Also, in the experiment with UACC-257, the GI50 is 13.8 µM (inactive).

On to `Clc1ccc2nc3[nH]nc(Cl)c3nc2c1`, for which the GI50 with A549 is 36.8 µM (inactive); with COLO 205, 52.5 µM (inactive); in the experiment on EKVX it was 16.7 µM (inactive); in the experiment with HCT-116 it was 42.9 µM (inactive); in the experiment with HCT-15 it was greater than 100 µM; with M14, 70.3 µM (inactive). Also, the GI50 with MDA-MB-435 was 77.8 µM (inactive); in the experiment on MDA-N it was 76.9 µM (inactive); in the experiment on NCI-H23, 48.1 µM (inactive); in the experiment on NCI/ADR-RES it was 56.2 µM (inactive); with OVCAR-8 it was 71.3 µM (inactive); in the experiment on SK-MEL-2, 40.6 µM (inactive). Besides, the GI50 with SK-MEL-5 is 27.1 µM (inactive); in the experiment with SN12C, 38.5 µM (inactive); in the experiment with SNB-75, 48.6 µM (inactive); in the experiment with TK-10 it was 56.5 µM (inactive); in the experiment on UACC-257, 66.8 µM (inactive).

As to `CSc1c(C#N)c(=O)n(N)c2c1c(C)nn2-c1ccccc1`, the GI50 is 21.9 µM (inactive) in the experiment on A549; 19.4 µM (inactive) in the experiment on CCRF-CEM; 17.3 µM (inactive) in the experiment on COLO 205; 26.7 µM (inactive) in the experiment with EKVX; 23.7 µM (inactive) in the experiment on HCT-116; 22.1 µM in the experiment with HCT-15. Also, the GI50 in the experiment on M14 was 35.7 µM (inactive); in the experiment with MDA-MB-435 it was 30.9 µM (inactive); in the experiment on MDA-N, 35.6 µM (inactive); in the experiment on NCI-H226, 24.8 µM (inactive); with NCI-H23, 18.9 µM (inactive); in the experiment with NCI/ADR-RES it was 24.3 µM (inactive). Further, the GI50 is 20.8 µM (inactive) in the experiment with OVCAR-8; 19.3 µM (inactive) with SK-MEL-2; 15.3 µM (inactive) in the experiment on SK-MEL-5; 34.4 µM (inactive) in the experiment on SN12C; 28.2 µM (inactive) in the experiment on SNB-75; 30.1 µM (inactive) with TK-10. For the same compound, in the experiment with UACC-257, the GI50 was 22 µM (inactive).

Consider `CCC(c1ccccc1)c1cc(C(C)(C)C)cc(C(C)(C)C)c1O` (stereo not drawn), for which the GI50 with A549 is 16.3 µM (inactive); in the experiment on COLO 205, 18.7 µM (inactive); in the experiment on EKVX, 17.8 µM (inactive); with HCT-116, 12.9 µM (inactive); with HCT-15 it was 16.8 µM; in the experiment on IGROV-1, 17 µM (inactive). The GI50 is 18.6 µM (inactive) in the experiment on M14; 18.2 µM (inactive) in the experiment with MDA-MB-435; 17.1 µM (inactive) in the experiment with MDA-N; 18.9 µM (inactive) with NCI-H226; 17.2 µM (inactive) in the experiment on NCI-H23; 15.4 µM (inactive) in the experiment with NCI/ADR-RES. Further, the GI50 in the experiment on OVCAR-8 is 17.3 µM (inactive); with SK-MEL-2, 15.7 µM (inactive); in the experiment on SK-MEL-5, 18.1 µM (inactive); with SN12C it was 17.3 µM (inactive); in the experiment with SNB-75, 14.2 µM (inactive); in the experiment on TK-10 it was 15.5 µM (inactive). Moreover, in the experiment with UACC-257, the GI50 is 15.2 µM (inactive).

As for `O=C1CSCC(=O)Nc2ccccc2N1`, the GI50 was > 100 µM (inactive) with A549; > 100 µM (inactive) with CCRF-CEM; > 100 µM (inactive) in the experiment with COLO 205; > 100 µM (inactive) with EKVX; > 100 µM (inactive) with HCT-116; greater than 100 µM in the experiment with HCT-15. Besides, the GI50 in the experiment on IGROV-1, with M14, in the experiment on MDA-MB-435, with MDA-N, in the experiment on NCI-H226 and in the experiment with NCI-H23 was > 100 µM (inactive) each time. Further, the GI50 in the experiment with NCI/ADR-RES, in the experiment on OVCAR-8, in the experiment with SK-MEL-2, in the experiment on SK-MEL-5, with SN12C and in the experiment on TK-10 was > 100 µM (inactive) in each case. In addition, the GI50 with UACC-257 is > 100 µM (inactive).

In the case of `CC1(C)CCCCCCCCCC(C)(CCCCCCCCCCCCO)C1=O` (stereo not drawn), the GI50 was 16.1 µM (inactive) with A549; 17.4 µM (inactive) in the experiment on CCRF-CEM; 28.6 µM (inactive) with COLO 205; 19.3 µM (inactive) with EKVX; 17.7 µM (inactive) with HCT-116; 21.7 µM in the experiment with HCT-15. The GI50 was 19.1 µM (inactive) in the experiment with IGROV-1; 17.7 µM (inactive) in the experiment with MDA-MB-435; 18.6 µM (inactive) in the experiment with MDA-N; 9.84 µM (inactive) in the experiment on NCI-H226; 18.7 µM (inactive) in the experiment with NCI-H23; 18.5 µM (inactive) in the experiment on NCI/ADR-RES. In addition, the GI50 with OVCAR-8 is 14.5 µM (inactive); with SK-MEL-2, 17.1 µM (inactive); with SK-MEL-5, 19.5 µM (inactive); with SN12C, 17.4 µM (inactive); in the experiment on SNB-75, 16.1 µM (inactive); in the experiment on TK-10, 17.7 µM (inactive). Also, in the experiment with UACC-257, the GI50 was 16.2 µM (inactive).

`CC(C)(C)C1CCC2c3c([nH]c4ccccc34)C3C(=O)N(c4cccc([N+](=O)[O-])c4)C(=O)C3C2C1` (stereo not drawn): the GI50 in the experiment with A549 was 39.5 µM (inactive); in the experiment on CCRF-CEM, > 100 µM (inactive); in the experiment with COLO 205 it was 21.2 µM (inactive); in the experiment on EKVX, 22.4 µM (inactive); in the experiment with HCT-116, 11.6 µM (inactive); in the experiment on HCT-15 it was 37.1 µM. The GI50 with IGROV-1 is 19.8 µM (inactive); with M14 it was 37.6 µM (inactive); in the experiment on MDA-MB-435, 16.1 µM (inactive); with MDA-N, 18.2 µM (inactive); in the experiment with NCI-H226 it was 25.4 µM (inactive); with NCI-H23, 15.5 µM (inactive). The GI50 with NCI/ADR-RES was 27.1 µM (inactive); with OVCAR-8, 25.7 µM (inactive); in the experiment with SK-MEL-2 it was 24.5 µM (inactive); in the experiment with SN12C, 7 µM (inactive); in the experiment with SNB-75 it was 59.6 µM (inactive); with TK-10 it was 38.5 µM (inactive). Besides, the GI50 in the experiment on UACC-257 was 22.5 µM (inactive).

Turning to `C1=Cc2ccccc2C1.C=C(C)c1ccccc1.[N-]=[N+]=Nc1ccccc1`, the GI50 in the experiment on A549 is > 100 µM (inactive); in the experiment on COLO 205 it was > 100 µM (inactive); with EKVX, 38.5 µM (inactive); with HCT-116 it was 48.3 µM (inactive); with HCT-15, greater than 100 µM; in the experiment on IGROV-1 it was > 100 µM (inactive). The GI50 was > 100 µM (inactive) in the experiment with M14; 70.6 µM (inactive) in the experiment on MDA-MB-435; 72.3 µM (inactive) in the experiment on MDA-N; 52.1 µM (inactive) in the experiment on NCI-H226; > 100 µM (inactive) in the experiment on NCI-H23; > 100 µM (inactive) in the experiment on NCI/ADR-RES. The GI50 with OVCAR-8 was > 100 µM (inactive); with SK-MEL-2, > 100 µM (inactive); in the experiment on SK-MEL-5, > 100 µM (inactive); with SN12C, > 100 µM (inactive); in the experiment on SNB-75 it was 49 µM (inactive); in the experiment on TK-10, > 100 µM (inactive). Besides, the GI50 with UACC-257 is 41 µM (inactive).
